Drawing on PMC13245809 (Nature chemistry, 2026), this text covers Kd for three compounds.

For assay [1], the target named is FABLE. The assay is described as follows: fluorescence titration, single-site binding model. On the set-up: species or system synthetic construct.
In assay [2] the target is FABLE. The assay can be described thus: fluorescence titration, global single-site fit. It counts as binding, synthetic construct.

For the compound `CCN(CC)c1ccc2c(C(F)(F)F)cc(=O)oc2c1` [Cou481], binding on FABLE [1] was characterised by a dissociation constant (Kd) of 5.8 ± 0.7 µM.
Compound `CN(C)c1ccc2c(C(F)(F)F)cc(=O)oc2c1` [Cou485, 7-(dimethylamino)-4-(trifluoromethyl)coumarin] yielded a Kd at FABLE [2] of 27.8 ± 1 µM.
`O=c1cc(C(F)(F)F)c2cc3c4c(c2o1)CCCN4CCC3` [Cou540a]: the Kd on FABLE [1] stood at 2 ± 0.1 µM.
